Experimental data reported in US5916785A, “Process of oxidizing alcohols or carboxylic acids with alcohol/aldehyde dehydrogenase from gluconobacter” (Roche Vitamins Inc., priority 1992, dated 1999).

Assays:
AADH [1] = experiment: Effect of inhibitors on the enzyme activity; assay type: biochemical, Gluconobacter oxydans DSM No. 4025; conditions: standard DCIP/PMS assay
AADH [2] = experiment: Effect of metal ions on the enzyme activity; assay type: biochemical, Gluconobacter oxydans DSM No. 4025; conditions: standard DCIP/PMS assay
Text: Using the assay procedure described under section 1), the effect of various metal ions on the enzyme activity was examined. […] The others affected the enzyme activity strongly or moderately.

AADH [3] = experiment: Measurement of the Km (Michaelis constant) values, DCIP/PMS enzyme assay; assay type: biochemical, Gluconobacter oxydans DSM No. 4025; conditions: mixture of DCIP and PMS as electron acceptors; 25° C., pH 8.0; read-out: apparent Michaelis constant (Km)
AADH [4] = conditions: substrate used instead of L-sorbose
Experimental: The enzyme assay was performed at 25° C. by measuring the decrease of absorbance at 600 nm of DCIP with a spectrophotometer (UVIKON 810, Kontron K.K.). One unit of the enzyme activity was defined as the amount of the enzyme which catalyzed the reduction of 1 μmole of DCIP per minute. The extinction coefficient of DCIP at pH 8.0 was taken as 15 mMol^-1. The standard reaction mixture (1.0 ml) contained 0.1 mMol DCIP, 1 mMol PMS, 125 mMol L-sorbose, 50 mMol Tris-malate-NaOH buffer (pH 8.0), and 3-8 μl of the enzyme solution. A reference cuvette contained all the above components except the substrate.
The substrate specificity of AADH was determined using the same enzyme assay method as described under section 1) above, except that various further substrates were used instead of L-sorbose.

Row | Structure (SMILES) | effect of metal ions on the AADH enzyme activity (AADH [2]) | also measured
1 | O=C(O)CN(CCN(CC(=O)O)CC(=O)O)CC(=O)O [EDTA, Ethylenediamine tetraacetic acid] |  | effect of inhibitors on the AADH enzyme activity (AADH [1]): strongly inhibited
2 | [Cu+2] [Cu^2+] | strong inhibitors | 
3 | [Mg+2] [Mg^2+] | did not affect | 
4 | CCCO [1-propanol] |  | Km (AADH [3]): 2000 µM
5 | O=C(O)CN(CCOCCOCCN(CC(=O)O)CC(=O)O)CC(=O)O [EGTA, ethylene glycol bis(beta-aminoethylether)-N,N,N',N'-tetraacetic acid] |  | effect of inhibitors on the AADH enzyme activity (AADH [1]): strongly inhibited
6 | CCO [ethanol] |  | oxidation as substrate by AADH (AADH [4]): good substrate
7 | CO [methanol] |  | oxidation as substrate by AADH (AADH [4]): hardly oxidizes

Further lines, with some results ahead:

Row | effect of metal ions on the AADH enzyme activity (AADH [2]) | Structure (SMILES) | also measured
8 | strong inhibitors | [Mn+2] [Mn^2+] | 
9 | did not affect | [Ca+2] [Ca^2+] | 
10 | strong inhibitors | [Fe+3] [Fe^3+] | 
